Source: patent US10081634B2, “Heterocyclic compound” (Daewoong Pharmaceutical Co., Ltd., priority 2014, dated 2018)

Columns and labels:
[1] = tested on: NCI-H460 cells; experiment: Cancer cell growth inhibition experiment (MTT assay); assay type: cell-based; settings: Homo sapiens; NCI-H460 lung cancer cell line; 48 hours treatment; MTT cell viability
Method: NCI-H460 cells, lung cancer cell lines, were cultured in 5% CO2, 37° C. incubator using a flask for 75 cm^2 tissue culture. 96-well plates were used for the evaluation. These were prepared by differently applying at concentrations in the range of 6,000 to 12,000 cells/well according to the growth rate of the cell lines. The medium containing 5% FBS were dispensed in 200 μL/well and used. The medium were cultured for 24 hours. After confirming the cell status and dispensing form of a 96-well plate under a microscope, they were used for subsequent experiments. The compounds were evaluated at concentrations of 100, 30, 10, 3, 1, 0.3, 0.03, 0.01 μM. After removing the existing medium, the compounds with various concentrations were treated in an amount of 200 μL/well. The compounds-treated plates were further cultured for 48 hours, and the cell viabilities were measured by MTT assay to calculate IC50 values.
% Inhibition and IC50 values of the respective compounds were calculated and analyzed using Sigma Plot 8.0. The case where the derived IC50 is 5 μM or less is represented by “A”, the case where the IC50 is 5 to 30 μM is represented by “B”, and the case where the IC50 is 30 μM or higher is represented by “C”.

[2] = biological target: T1, PRS (prolyl-tRNA synthetase) (Homo sapiens, UniProt P07814); experiment: In vitro PRS enzyme activity inhibition experiment ([3H]proline, liquid scintillation); assay type: biochemical; settings: purified PRS protein subcloned from EPRS cDNA; 37° C., 5 to 10 minutes; read-out: PRS IC50
T1 construct: the portion corresponding to PRS in cDNA of EPRS was subcloned; made in house
T1 sequence (P07814 1007-1512 limits assumed): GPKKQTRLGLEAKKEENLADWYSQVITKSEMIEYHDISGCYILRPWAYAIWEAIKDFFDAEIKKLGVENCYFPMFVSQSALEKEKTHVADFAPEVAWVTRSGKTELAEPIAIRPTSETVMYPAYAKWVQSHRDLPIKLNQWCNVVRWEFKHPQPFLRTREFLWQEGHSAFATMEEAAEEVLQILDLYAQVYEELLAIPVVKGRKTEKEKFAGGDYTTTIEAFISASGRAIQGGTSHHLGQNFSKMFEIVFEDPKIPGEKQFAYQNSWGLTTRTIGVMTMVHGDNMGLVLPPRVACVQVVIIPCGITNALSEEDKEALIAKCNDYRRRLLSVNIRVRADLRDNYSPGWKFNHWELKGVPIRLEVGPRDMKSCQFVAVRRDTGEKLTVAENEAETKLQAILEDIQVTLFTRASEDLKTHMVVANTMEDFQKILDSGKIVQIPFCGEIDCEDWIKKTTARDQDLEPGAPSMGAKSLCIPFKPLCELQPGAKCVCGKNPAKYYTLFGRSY
Method: In order to confirm the biological activities of the compounds prepared in Examples, % inhibition or IC50 values of PRS enzyme ([…]) activities were calculated.
Specifically, the portion corresponding to PRS in cDNA of EPRS was subcloned, and the obtained high-purity PRS protein was purified and used in the experiment. The compounds (1 μM) prepared in Examples were added into the reaction buffer (20 mM KPO4 (pH 7.4), 6 mM MgAc, 5 mM ATP, […] tRNA, 0.5 mM DTT, 20 mCi[^3H]proline (1 mCi/mL)) and allowed to react at 37° C. for 5 to 10 minutes. The reaction was terminated with 3M paper that was previously dried by addition of 5% TCA. The radioactivity was measured using a liquid scintillation counter.
IC50 values of the respective compounds were calculated and analyzed using Microsoft Excel or Sigma Plot 8.0. In Table 1, the results are divided into A, B and C according to the range of IC50. The case where the derived IC50 is 100 nM or less is represented by “A”, the case where the IC50 is 100 to 500 nM is represented by “B”, and the case where the IC50 is 500 nM or higher is represented by “C”.

SMILES	IC50 [1] [µM]	IC50 [2] [µM]
O=C(C[C@H]1NCCC[C@@H]1O)Cn1cnc2ccccc21 [Example 1, 1-(1H-benzo[d]imidazol-1-yl)-3-((2R,3S)-3-hydroxypiperidin-2-yl)propan-2-one]	≥ 30	> 0.5
O=C(C[C@H]1NCCC[C@@H]1O)Cn1cnc2cc(Cl)ccc21 [Example 2, 1-(5-chloro-1H-benzo[d]imidazol-1-yl)-3-((2R,3S)-3-hydroxypiperidin-2-yl)propan-2-one]	5 to 30	< 0.1
O=C(C[C@H]1NCCC[C@@H]1O)Cn1cnc2ccc(Cl)cc21 [Example 3, 1-(6-chloro-1H-benzo[d]imidazol-1-yl)-3-((2R,3S)-3-hydroxypiperidin-2-yl)propan-2-one]	5 to 30	< 0.1
O=C(C[C@H]1NCCC[C@@H]1O)Cn1cnc2cc(Br)ccc21 [Example 4, 1-(5-bromo-1H-benzo[d]imidazol-1-yl)-3-((2R,3S)-3-hydroxypiperidin-2-yl)propan-2-one]	5 to 30	< 0.1
O=C(C[C@H]1NCCC[C@@H]1O)Cn1cnc2cc(F)c(F)cc21 [Example 10, 1-(5,6-difluoro-1H-benzo[d]imidazol-1-yl)-3-((2R,3S)-3-hydroxypiperidin-2-yl)propan-2-one]	5 to 30	0.1 to 0.5
Cc1c(F)ccc2c1ncn2CC(=O)C[C@H]1NCCC[C@@H]1O [Example 13, 1-(5-fluoro-4-methyl-1H-benzo[d]imidazol-1-yl)-3-((2R,3S)-3-hydroxypiperidin-2-yl)propan-2-one]	≤ 5	< 0.1
Cc1c(Br)ccc2c1ncn2CC(=O)C[C@H]1NCCC[C@@H]1O [Example 15, 1-(5-bromo-4-methyl-1H-benzo[d]imidazol-1-yl)-3-((2R,3S)-3-hydroxypiperidin-2-yl)propan-2-one]	≤ 5	< 0.1
O=C(C[C@H]1NCCC[C@@H]1O)Cn1cnc2c(C(F)(F)F)c(F)ccc21 [Example 17, 1-(5-fluoro-4-(trifluoromethyl)-1H-benzo[d]imidazol-1-yl)-3-((2R,3S)-3-hydroxypiperidin-2-yl)propan-2-one]	5 to 30	< 0.1
Cc1ccc2c(ncn2CC(=O)C[C@H]2NCCC[C@@H]2O)c1Br [Example 19, 1-(4-bromo-5-methyl-1H-benzo[d]imidazol-1-yl)-3-((2R,3S)-3-hydroxypiperidin-2-yl)propan-2-one]	5 to 30	< 0.1
O=C(C[C@H]1NCCC[C@@H]1O)Cn1cnc2c(F)c(Br)ccc21 [Example 20, 1-(5-bromo-4-fluoro-1H-benzo[d]imidazol-1-yl)-3-((2R,3S)-3-hydroxypiperidin-2-yl)propan-2-one]	≤ 5	< 0.1
O=C(C[C@H]1NCCC[C@@H]1O)Cn1cnc2c(Cl)c(F)ccc21 [Example 21, 1-(4-chloro-5-fluoro-1H-benzo[d]imidazol-1-yl)-3-((2R,3S)-3-hydroxypiperidin-2-yl)propan-2-one]	5 to 30	0.1 to 0.5
O=C(C[C@H]1NCCC[C@@H]1O)Cn1cnc2c(Cl)c(Br)ccc21 [Example 22, 1-(5-bromo-4-chloro-1H-benzo[d]imidazol-1-yl)-3-((2R,3S)-3-hydroxypiperidin-2-yl)propan-2-one]	≤ 5	< 0.1
Cc1cc(Br)cc2c1ncn2CC(=O)C[C@H]1NCCC[C@@H]1O [Example 23, 1-(6-bromo-4-methyl-1H-benzo[d]imidazol-1-yl)-3-((2R,3S)-3-hydroxypiperidin-2-yl)propan-2-one]	5 to 30	< 0.1

Further lines, results first:

IC50 [1] [µM]	IC50 [2] [µM]	SMILES
5 to 30	< 0.1	O=C(C[C@H]1NCCC[C@@H]1O)Cn1cnc2ccc(Br)cc21 [Example 5, 1-(6-bromo-1H-benzo[d]imidazol-1-yl)-3-((2R,3S)-3-hydroxypiperidin-2-yl)propan-2-one]
≥ 30	0.1 to 0.5	O=C(C[C@H]1NCCC[C@@H]1O)Cn1cnc2cc(C(F)(F)F)ccc21 [Example 6, 1-((2R,3S)-3-hydroxypiperidin-2-yl)-3-(5-(trifluoromethyl)-1H-benzo[d]imidazol-1-yl)propan-2-one]
5 to 30	< 0.1	O=C(C[C@H]1NCCC[C@@H]1O)Cn1cnc2ccc(C(F)(F)F)cc21 [Example 7, 1-((2R,3S)-3-hydroxypiperidin-2-yl)-3-(6-(trifluoromethyl)-1H-benzo[d]imidazol-1-yl)propan-2-one]
5 to 30	< 0.1	O=C(C[C@H]1NCCC[C@@H]1O)Cn1cnc2cccc(C(F)(F)F)c21 [Example 8, 1-((2R,3S)-3-hydroxypiperidin-2-yl)-3-(7-(trifluoromethyl)-1H-benzo[d]imidazol-1-yl)propan-2-one]
≥ 30	< 0.1	Cc1cc2ncn(CC(=O)C[C@H]3NCCC[C@@H]3O)c2cc1C [Example 9, 1-(5,6-dimethyl-1H-benzo[d]imidazol-1-yl)-3-((2R,3S)-3-hydroxypiperidin-2-yl)propan-2-one]
5 to 30	0.1 to 0.5	O=C(C[C@H]1NCCC[C@@H]1O)Cn1cnc2c(F)c(F)ccc21 [Example 11, 1-(4,5-difluoro-1H-benzo[d]imidazol-1-yl)-3-((2R,3S)-3-hydroxypiperidin-2-yl)propan-2-one]
≤ 5	< 0.1	O=C(C[C@H]1NCCC[C@@H]1O)Cn1cnc2c(Cl)c(Cl)ccc21 [Example 12, 1-(4,5-dichloro-1H-benzo[d]imidazol-1-yl)-3-((2R,3S)-3-hydroxypiperidin-2-yl)propan-2-one]
≤ 5	< 0.1	Cc1c(Cl)ccc2c1ncn2CC(=O)C[C@H]1NCCC[C@@H]1O [Example 14, 1-(5-chloro-4-methyl-1H-benzo[d]imidazol-1-yl)-3-((2R,3S)-3-hydroxypiperidin-2-yl)propan-2-one]
5 to 30	< 0.1	Cc1ccc2c(ncn2CC(=O)C[C@H]2NCCC[C@@H]2O)c1C [Example 16, 1-(4,5-dimethyl-1H-benzo[d]imidazol-1-yl)-3-((2R,3S)-3-hydroxypiperidin-2-yl)propan-2-one]
5 to 30	< 0.1	O=C(C[C@H]1NCCC[C@@H]1O)Cn1cnc2c(C(F)(F)F)c(Br)ccc21 [Example 18, 1-(5-bromo-4-(trifluoromethyl)-1H-benzo[d]imidazol-1-yl)-3-((2R,3S)-3-hydroxypiperidin-2-yl)propan-2-one]
5 to 30	< 0.1	Cc1cc(Cl)cc2c1ncn2CC(=O)C[C@H]1NCCC[C@@H]1O [Example 24, 1-(6-chloro-4-methyl-1H-benzo[d]imidazol-1-yl)-3-((2R,3S)-3-hydroxypiperidin-2-yl)propan-2-one]
≤ 5	< 0.1	O=C(C[C@H]1NCCC[C@@H]1O)Cn1cnc2cc(Cl)c(Cl)cc21 [Example 25, 1-(5,6-dichloro-1H-benzo[d]imidazol-1-yl)-3-((2R,3S)-3-hydroxypiperidin-2-yl)propan-2-one]
≤ 5	< 0.1	O=C(C[C@H]1NCCC[C@@H]1O)Cn1cnc2cc(F)c(Br)cc21 [Example 26, 1-(6-bromo-5-fluoro-1H-benzo[d]imidazol-1-yl)-3-((2R,3S)-3-hydroxypiperidin-2-yl)propan-2-one]
